According to ChEMBL document CHEMBL1201862, “PubChem BioAssay data set” (2004):
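The compound was tested at five concentrations on cells cultured in 96-well plates, with a 48-hour exposure period. Here, GI50 denotes the concentration required for 50% inhibition of growth.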 Activity calls are given as the source filed them. Cut-off read from the data, not from the text of the source: active = GI50 up to about 1.1 µM and inactive = higher.

Columns and labels:
Test in all cases: NCI-60 cell line screen, 48 h
RXF 393 = tested on: RXF 393
SK-OV-3 = tested on: SK-OV-3
LXFL 529 = tested on: LXFL 529
XF498 = tested on: XF498
EKVX = tested on: EKVX
HOP-92 = tested on: HOP-92
SK-MEL-28 = tested on: SK-MEL-28
UACC-257 = tested on: UACC-257
SNB-75 = tested on: SNB-75
HOP-62 = tested on: HOP-62
OVCAR-3 = tested on: OVCAR-3
NCI-H23 = tested on: NCI-H23
SK-MEL-5 = tested on: SK-MEL-5
OVCAR-4 = tested on: OVCAR-4
DMS-273 = tested on: DMS-273
NCI-H460 = tested on: NCI-H460
IGROV-1 = tested on: IGROV-1
KM-20L2 = tested on: KM-20L2
COLO 205 = tested on: COLO 205
786-0 = tested on: 786-0
SF-539 = tested on: SF-539
HCT-15 = tested on: HCT-15
HT-29 = tested on: HT-29
UACC-62 = tested on: UACC-62
M19-MEL = tested on: M19-MEL
DMS-114 = tested on: DMS-114
DLD-1 = tested on: DLD-1
A498 = tested on: A498
K562 = tested on: K562
ACHN = tested on: ACHN
A549 = tested on: A549
OVCAR-8 = tested on: OVCAR-8
HCC 2998 = tested on: HCC 2998
SN12C = tested on: SN12C
SNB-19 = tested on: SNB-19
LOX IMVI = tested on: LOX IMVI
MOLT-4 = tested on: MOLT-4
HOP-18 = tested on: HOP-18
CAKI-1 = tested on: CAKI-1
M14 = tested on: M14
SW-620 = tested on: SW-620
SF-295 = tested on: SF-295
TK-10 = tested on: TK-10
U-251 = tested on: U-251
RPMI-8226 = tested on: RPMI-8226
HCT-116 = tested on: HCT-116
CCRF-CEM = tested on: CCRF-CEM
HL-60 = tested on: HL-60
SNB-78 = tested on: SNB-78
SF-268 = tested on: SF-268
SR = tested on: SR
KM12 = tested on: KM12
SK-MEL-2 = tested on: SK-MEL-2
RXF 631 = tested on: RXF 631
Malme-3M = tested on: Malme-3M
OVCAR-5 = tested on: OVCAR-5
UO-31 = tested on: UO-31
NCI-H226 = tested on: NCI-H226

COc1ccc2occ(CCC(=O)O)c2c1
GI50 (RXF 393): > 100 µM (inactive) | GI50 (SK-OV-3): > 100 µM (inactive) | GI50 (LXFL 529): > 100 µM (inactive) | GI50 (XF498): > 100 µM (inactive) | GI50 (EKVX): > 100 µM (inactive) | GI50 (HOP-92): > 100 µM (inactive) | GI50 (SK-MEL-28): > 100 µM (inactive) | GI50 (UACC-257): > 100 µM (inactive) | GI50 (SNB-75): > 100 µM (inactive) | GI50 (HOP-62): > 100 µM (inactive) | GI50 (OVCAR-3): > 100 µM (inactive) | GI50 (NCI-H23): > 100 µM (inactive) | GI50 (SK-MEL-5): > 100 µM (inactive) | GI50 (OVCAR-4): > 100 µM (inactive) | GI50 (DMS-273): > 100 µM (inactive) | GI50 (NCI-H460): > 100 µM (inactive) | GI50 (IGROV-1): > 100 µM (inactive) | GI50 (KM-20L2): > 100 µM (inactive) | GI50 (COLO 205): > 100 µM (inactive) | GI50 (786-0): > 100 µM (inactive) | GI50 (SF-539): > 100 µM (inactive) | GI50 (HCT-15): > 100 µM | GI50 (HT-29): > 100 µM (inactive) | GI50 (UACC-62): > 100 µM (inactive) | GI50 (M19-MEL): > 100 µM (inactive) | GI50 (DMS-114): > 100 µM (inactive) | GI50 (DLD-1): > 100 µM (inactive) | GI50 (A498): > 100 µM (inactive) | GI50 (K562): > 100 µM (inactive) | GI50 (ACHN): > 100 µM (inactive) | GI50 (A549): > 100 µM (inactive) | GI50 (OVCAR-8): > 100 µM (inactive) | GI50 (HCC 2998): > 100 µM (inactive) | GI50 (SN12C): > 100 µM (inactive) | GI50 (SNB-19): > 100 µM (inactive) | GI50 (LOX IMVI): > 100 µM (inactive) | GI50 (MOLT-4): > 100 µM (inactive) | GI50 (HOP-18): > 100 µM (inactive) | GI50 (CAKI-1): > 100 µM (inactive) | GI50 (M14): > 100 µM (inactive) | GI50 (SW-620): > 100 µM (inactive) | GI50 (SF-295): > 100 µM (inactive) | GI50 (TK-10): > 100 µM (inactive) | GI50 (U-251): > 100 µM (inactive) | GI50 (RPMI-8226): > 100 µM (inactive) | GI50 (HCT-116): > 100 µM (inactive) | GI50 (CCRF-CEM): > 100 µM (inactive) | GI50 (HL-60): > 100 µM (inactive) | GI50 (SNB-78): > 100 µM (inactive)

COc1cc2ccc(CC#N)cc2cc1OC
GI50 (RXF 393): > 100 µM (inactive) | GI50 (SF-268): > 100 µM (inactive) | GI50 (SK-OV-3): > 100 µM (inactive) | GI50 (SR): > 100 µM (inactive) | GI50 (LXFL 529): > 100 µM (inactive) | GI50 (KM12): > 100 µM (inactive) | GI50 (XF498): > 100 µM (inactive) | GI50 (SK-MEL-2): > 100 µM (inactive) | GI50 (EKVX): 83.8 µM (inactive) | GI50 (HOP-92): 71.1 µM (inactive) | GI50 (SK-MEL-28): > 100 µM (inactive) | GI50 (UACC-257): > 100 µM (inactive) | GI50 (RXF 631): > 100 µM (inactive) | GI50 (HOP-62): > 100 µM (inactive) | GI50 (NCI-H23): > 100 µM (inactive) | GI50 (SK-MEL-5): 62.1 µM (inactive) | GI50 (OVCAR-4): 93.5 µM (inactive) | GI50 (DMS-273): > 100 µM (inactive) | GI50 (NCI-H460): > 100 µM (inactive) | GI50 (KM-20L2): > 100 µM (inactive) | GI50 (Malme-3M): > 100 µM (inactive) | GI50 (786-0): > 100 µM (inactive) | GI50 (SF-539): > 100 µM (inactive) | GI50 (HT-29): > 100 µM (inactive) | GI50 (M19-MEL): > 100 µM (inactive) | GI50 (DMS-114): > 100 µM (inactive) | GI50 (DLD-1): > 100 µM (inactive) | GI50 (A498): > 100 µM (inactive) | GI50 (K562): > 100 µM (inactive) | GI50 (ACHN): > 100 µM (inactive) | GI50 (A549): > 100 µM (inactive) | GI50 (OVCAR-8): > 100 µM (inactive) | GI50 (SN12C): > 100 µM (inactive) | GI50 (SNB-19): > 100 µM (inactive) | GI50 (LOX IMVI): > 100 µM (inactive) | GI50 (MOLT-4): > 100 µM (inactive) | GI50 (OVCAR-5): > 100 µM (inactive) | GI50 (CAKI-1): 45.9 µM (inactive) | GI50 (UO-31): > 100 µM (inactive) | GI50 (NCI-H226): > 100 µM (inactive) | GI50 (SW-620): > 100 µM (inactive) | GI50 (SF-295): > 100 µM (inactive) | GI50 (TK-10): > 100 µM (inactive) | GI50 (U-251): > 100 µM (inactive) | GI50 (CCRF-CEM): > 100 µM (inactive) | GI50 (HL-60): > 100 µM (inactive) | GI50 (SNB-78): > 100 µM (inactive)

O=C(Oc1ccc(Cl)cc1[N+](=O)[O-])c1ccccc1
GI50 (RXF 393): 24.1 µM (inactive) | GI50 (SF-268): > 100 µM (inactive) | GI50 (SK-OV-3): > 100 µM (inactive) | GI50 (SR): > 100 µM (inactive) | GI50 (LXFL 529): > 100 µM (inactive) | GI50 (KM12): > 100 µM (inactive) | GI50 (XF498): 0.0435 µM (active) | GI50 (SK-MEL-2): > 100 µM (inactive) | GI50 (EKVX): > 100 µM (inactive) | GI50 (HOP-92): > 100 µM (inactive) | GI50 (SK-MEL-28): > 100 µM (inactive) | GI50 (UACC-257): > 100 µM (inactive) | GI50 (SNB-75): 90.8 µM (inactive) | GI50 (HOP-62): > 100 µM (inactive) | GI50 (OVCAR-3): 69.5 µM (inactive) | GI50 (NCI-H23): 69.2 µM (inactive) | GI50 (SK-MEL-5): 16 µM (inactive) | GI50 (OVCAR-4): 43.4 µM (inactive) | GI50 (DMS-273): > 100 µM (inactive) | GI50 (NCI-H460): > 100 µM (inactive) | GI50 (IGROV-1): > 100 µM (inactive) | GI50 (KM-20L2): > 100 µM (inactive) | GI50 (Malme-3M): > 100 µM (inactive) | GI50 (COLO 205): > 100 µM (inactive) | GI50 (SF-539): > 100 µM (inactive) | GI50 (HCT-15): > 100 µM | GI50 (HT-29): > 100 µM (inactive) | GI50 (UACC-62): > 100 µM (inactive) | GI50 (M19-MEL): > 100 µM (inactive) | GI50 (DMS-114): > 100 µM (inactive) | GI50 (DLD-1): > 100 µM (inactive) | GI50 (A498): > 100 µM (inactive) | GI50 (K562): > 100 µM (inactive) | GI50 (ACHN): > 100 µM (inactive) | GI50 (A549): > 100 µM (inactive) | GI50 (OVCAR-8): > 100 µM (inactive) | GI50 (HCC 2998): > 100 µM (inactive) | GI50 (SN12C): > 100 µM (inactive) | GI50 (SNB-19): > 100 µM (inactive) | GI50 (LOX IMVI): > 100 µM (inactive) | GI50 (MOLT-4): > 100 µM (inactive) | GI50 (OVCAR-5): 57.1 µM (inactive) | GI50 (HOP-18): > 100 µM (inactive) | GI50 (UO-31): 86.5 µM (inactive) | GI50 (M14): > 100 µM (inactive) | GI50 (NCI-H226): 92.9 µM (inactive) | GI50 (SW-620): > 100 µM (inactive) | GI50 (SF-295): > 100 µM (inactive) | GI50 (TK-10): > 100 µM (inactive) | GI50 (U-251): 38.5 µM (inactive) | GI50 (RPMI-8226): 91.4 µM (inactive) | GI50 (HCT-116): > 100 µM (inactive) | GI50 (CCRF-CEM): 73.6 µM (inactive) | GI50 (HL-60): 65.6 µM (inactive) | GI50 (SNB-78): > 100 µM (inactive)
